From the CheMixHub viscosity set

Assay: xn = mol fraction of the nth substance listed

CNCCO + O
viscosity [mPa·s]
Conditions	293.15 K	298.15 K	303.15 K	308.15 K	313.15 K	318.15 K	323.15 K
100 kPa, x2 = 0.51	26.3	–	–	–	9.61	–	6.36
101 kPa, x1 = 0.0844	–	–	2.541	2.165	1.868	1.625	–
101 kPa, x1 = 0.1894	–	–	6.505	5.276	4.347	3.612	–
101 kPa, x1 = 0.3001	–	–	11.33	8.968	7.206	5.87	–
101 kPa, x1 = 0.4014	–	–	14.46	11.33	9.042	7.311	–
101 kPa, x1 = 0.448	–	–	15.21	11.93	9.52	–	–
101 kPa, x1 = 0.5016	–	–	15.62	12.24	9.767	–	–
101 kPa, x1 = 0.5474	–	–	15.45	12.14	9.666	–	–
101 kPa, x1 = 0.6004	–	–	15.17	11.95	9.57	–	–
101 kPa, x1 = 0.7021	–	–	13.66	10.84	8.761	–	–
101 kPa, x1 = 0.7975	–	–	11.89	9.564	7.81	–	–
101 kPa, x1 = 0.9048	–	–	10.09	8.218	6.771	–	–
101.3 kPa, x1 = 0.0125	1.234	1.086	0.963	0.863	0.778	0.705	0.644
101.3 kPa, x1 = 0.138	6.87	5.53	4.42	3.65	3.07	2.61	2.25
101.3 kPa, x1 = 0.265	16.7	12.81	–	7.99	6.46	5.31	4.41
101.3 kPa, x2 = 0.3167	22.4	17.24	13.51	10.76	8.699	7.129	5.914
101.3 kPa, x2 = 0.5104	27.48	20.95	16.28	12.83	10.25	8.308	6.794
101.3 kPa, x2 = 0.641	22.98	17.41	13.47	10.6	8.484	6.887	5.67
101.3 kPa, x2 = 0.7356	17.61	–	10.58	8.433	6.828	5.626	4.688
101.3 kPa, x2 = 0.8064	10.8	8.438	6.716	5.451	4.498	3.765	3.181
101.3 kPa, x2 = 0.8623	6.917	5.549	4.52	3.745	3.143	2.663	2.282
101.3 kPa, x2 = 0.9067	4.02	–	2.789	2.363	2.02	1.75	1.536
101.3 kPa, x2 = 0.9434	2.462	2.089	1.794	1.557	1.364	1.206	1.076
101.3 kPa, x2 = 0.974	1.532	1.334	1.172	1.041	0.929	0.838	0.759
101.33 kPa, x1 = 0.01	–	1.089	0.97	–	0.785	–	–
101.33 kPa, x1 = 0.0217	–	1.366	1.198	–	0.949	–	–
101.33 kPa, x1 = 0.0333	–	1.692	1.469	–	1.133	–	–
101.33 kPa, x1 = 0.0467	–	2.146	1.836	–	1.384	–	–
101.33 kPa, x1 = 0.0622	–	2.759	2.315	–	–	–	–
101.33 kPa, x1 = 0.0772	–	3.465	2.815	–	2.049	–	–
101.33 kPa, x1 = 0.1167	–	5.735	4.525	–	3.075	–	–
101.33 kPa, x1 = 0.1656	–	9.455	7.046	–	4.573	–	–
101.33 kPa, x1 = 0.2308	–	14.59	10.71	–	6.551	–	–
101.33 kPa, x1 = 0.3169	–	19.66	14.66	–	8.805	–	–
101.33 kPa, x1 = 0.3893	–	21.8	16.85	–	10.24	–	–
101.33 kPa, x1 = 0.449	–	22.25	17.79	–	10.9	–	–
101.33 kPa, x1 = 0.5356	–	22.31	17.99	–	11.21	–	–
101.33 kPa, x1 = 0.6845	–	21.05	16.24	–	10.16	–	–
101.33 kPa, x1 = 0.8213	–	17.45	13.21	–	8.401	–	–
101.33 kPa, x1 = 0.9202	–	13.96	11	–	7.227	–	–
101.33 kPa, x1 = 0.956	–	12.96	10.26	–	6.823	–	–
